The text below walks through data of patent publication US6451836B1, “Method of inhibiting liver glycogen phosphorylase with 2-alkylpyrrolidines” (Novo Nordisk A/S, priority 1995, dated 2002).

Where two headings read alike, the source gives them in different places. A value given as a limit tells only on which side of the number the result lay.

For series [1], the system named is type 2 diabetic patients. To be noted: Sels et al. (Netherland J.Med. 44 (1994), 198); cited from earlier work.
In series [2] the test system is Rat hepatocytes. Kind of series: baseline and glucagon stimulated glucose production from cultured liver cells. Format: cell-based. Conditions: for Glucose production without glucagon: relative to the basal glucose production (no addition 100%); for Glucose production without glucagon / Glucose production with glucagon (0.5 nM): 70 minutes; for Glucose production with glucagon (0.5 nM): relative to the basal glucose production (no addition 233%); for inhibition of hepatocyte glucose production (in words): basal and glucagon stimulated. As to the method:
During the last 24 hours, the hepatocytes were cultured in the presence of high levels of insulin (5 nM) and glucose (15 mM), which result in the incorporation of glucose into glycogen. Therefore, at the time of the experiment, the cells mimic livers from fed animals. Experiments were initiated after 48 hours of culture by 2 times wash of cells and addition of a 20 mM HEPES experimental buffer including balanced salts, but without glucose. The test compound was added simultaneously with the experimental buffer. To some cultures, glucagon (0.5 nM) was added after 10 minutes in order to stimulate glucose production from liver cells. The glucose released into the media, reflecting the glucose production of the liver cells, was measured 70 minutes after the start of the experiment and standardized to cellular DNA content.

In series [3] the target is T1, α-1,6-glucosidase (Homo sapiens, UniProt P35573). Kind of series: activity of the glycogen debranching enzyme, α-1,6-glucosidase. Format: biochemical. Conditions: read-out: 1,6-glucosidase, concentration resulting in half maximal activity (I.C.50). As to the method: The activity of the glycogen debranching enzyme, α-1,6-glucosidase, was determined as described by Brown and Brown (1966; in : Meth. in Enzymology, 8, 515-524, Neufeld and Ginsburg (Eds.) Academic Press).
T1 sequence (P35573 whole entry): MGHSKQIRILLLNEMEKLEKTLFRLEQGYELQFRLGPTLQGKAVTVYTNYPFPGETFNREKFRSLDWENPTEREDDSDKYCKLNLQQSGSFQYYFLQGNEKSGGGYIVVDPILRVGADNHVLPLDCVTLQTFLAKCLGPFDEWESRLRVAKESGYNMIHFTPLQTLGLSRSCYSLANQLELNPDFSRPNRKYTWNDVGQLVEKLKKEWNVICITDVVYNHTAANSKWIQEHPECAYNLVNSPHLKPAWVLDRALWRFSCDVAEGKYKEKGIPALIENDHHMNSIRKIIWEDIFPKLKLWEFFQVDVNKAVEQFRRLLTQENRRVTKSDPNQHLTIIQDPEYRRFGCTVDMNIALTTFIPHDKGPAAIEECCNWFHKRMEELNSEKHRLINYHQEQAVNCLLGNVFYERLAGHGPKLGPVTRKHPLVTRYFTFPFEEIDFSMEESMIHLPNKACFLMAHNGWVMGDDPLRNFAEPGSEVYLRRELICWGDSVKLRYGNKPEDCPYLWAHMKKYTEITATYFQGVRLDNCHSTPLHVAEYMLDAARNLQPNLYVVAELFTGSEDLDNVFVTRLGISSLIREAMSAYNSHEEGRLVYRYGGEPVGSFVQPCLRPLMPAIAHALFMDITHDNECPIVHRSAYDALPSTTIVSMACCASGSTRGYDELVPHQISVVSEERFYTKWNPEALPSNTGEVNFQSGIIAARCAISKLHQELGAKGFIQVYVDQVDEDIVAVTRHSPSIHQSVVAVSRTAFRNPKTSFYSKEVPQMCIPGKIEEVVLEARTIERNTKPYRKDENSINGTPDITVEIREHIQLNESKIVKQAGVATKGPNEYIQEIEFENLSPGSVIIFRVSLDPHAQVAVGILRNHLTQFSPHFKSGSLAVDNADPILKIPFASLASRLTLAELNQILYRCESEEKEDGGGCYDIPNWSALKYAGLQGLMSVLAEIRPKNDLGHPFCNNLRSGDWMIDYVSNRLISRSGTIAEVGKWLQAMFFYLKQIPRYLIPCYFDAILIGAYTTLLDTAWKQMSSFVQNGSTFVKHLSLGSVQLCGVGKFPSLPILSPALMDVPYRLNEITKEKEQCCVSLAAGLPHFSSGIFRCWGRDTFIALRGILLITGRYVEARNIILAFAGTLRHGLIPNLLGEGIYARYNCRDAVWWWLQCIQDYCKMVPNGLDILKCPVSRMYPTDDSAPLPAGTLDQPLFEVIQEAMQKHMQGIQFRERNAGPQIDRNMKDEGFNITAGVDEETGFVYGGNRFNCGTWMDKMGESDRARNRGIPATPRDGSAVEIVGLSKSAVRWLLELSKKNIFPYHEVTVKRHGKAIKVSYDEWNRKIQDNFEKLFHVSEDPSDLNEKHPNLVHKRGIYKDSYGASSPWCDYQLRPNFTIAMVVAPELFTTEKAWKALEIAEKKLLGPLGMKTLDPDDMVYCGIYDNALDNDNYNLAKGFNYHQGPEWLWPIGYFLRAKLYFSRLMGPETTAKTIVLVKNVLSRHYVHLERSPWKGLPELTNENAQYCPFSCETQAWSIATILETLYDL

The target of series [4] is T2, Phosphorylase (Rattus norvegicus, UniProt P09811).
T2 sequence (P09811 2-850): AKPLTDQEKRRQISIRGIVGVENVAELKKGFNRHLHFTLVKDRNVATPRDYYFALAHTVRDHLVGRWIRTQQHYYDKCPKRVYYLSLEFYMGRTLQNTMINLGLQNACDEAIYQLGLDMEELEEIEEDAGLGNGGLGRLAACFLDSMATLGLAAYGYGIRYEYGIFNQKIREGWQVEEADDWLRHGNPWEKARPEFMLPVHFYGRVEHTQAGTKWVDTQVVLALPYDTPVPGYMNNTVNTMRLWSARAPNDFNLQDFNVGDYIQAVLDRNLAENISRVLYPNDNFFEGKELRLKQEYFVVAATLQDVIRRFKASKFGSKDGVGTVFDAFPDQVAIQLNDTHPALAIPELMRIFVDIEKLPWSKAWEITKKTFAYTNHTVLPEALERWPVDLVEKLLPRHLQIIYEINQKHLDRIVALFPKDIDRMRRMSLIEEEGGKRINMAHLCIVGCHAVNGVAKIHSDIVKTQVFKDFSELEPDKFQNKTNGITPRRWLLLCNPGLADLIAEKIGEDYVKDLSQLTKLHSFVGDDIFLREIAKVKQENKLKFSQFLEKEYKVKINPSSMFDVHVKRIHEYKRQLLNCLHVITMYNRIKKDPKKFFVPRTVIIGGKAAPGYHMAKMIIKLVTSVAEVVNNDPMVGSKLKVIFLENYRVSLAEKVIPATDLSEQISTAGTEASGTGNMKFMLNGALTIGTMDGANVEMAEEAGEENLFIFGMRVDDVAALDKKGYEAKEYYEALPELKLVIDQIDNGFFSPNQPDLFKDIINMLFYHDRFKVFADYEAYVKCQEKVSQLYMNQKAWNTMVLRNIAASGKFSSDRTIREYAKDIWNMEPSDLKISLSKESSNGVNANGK
Kind of series: activity of phosphorylase. In kind it is biochemical. To be noted: read-out: Phosphorlyase, concentration resulting in half maximal activity (I.C.50). As to the method: Phosphorylase was either purchased from Sigma or extracted from rat livers according to Stalmans et. al. (Eur.J.Biochem. 49 (1974), 415). The activity of phosphorylase was determined as described by Bergmeyer (1983; in: Meth. of Enzymatic Analysis, 2, 293-295, Weinheim, (ed.) Verlag Chemie).

Series [5] concerns female ob/OB mice. Kind of series: glucagon mediated increase in blood glucose in mice. In kind it is in vivo. Conditions: for Delta plasma glucose: glucagon s.c., female ob/OB mice fasted 3 hours, averages ± S.D., N = 5, control 6.3 ± 1.0; for reduction of blood glucose (in words): glucagon mediated increase in blood glucose in mice, Table 1. The procedure:
For in vivo studies, female ob/OB mice (20 g) fasted for 3 hours were used. Test compounds or NaCl (0.9%; controls) were administered intraveneously (hereinafter designated i.v.). Glucagon were administered subcutaneously (herein-after designated s.c.) in order to increase hepatic glucose output derived from glycogen. Blood samples were drawn from the orbital vain and analyzed for glucose using a glucose oxidase method.

For series [6], the target named is T1, α-1,6-glucosidase. Conditions: From: Fleet et al. (Tetrahedron 20 (1986), 5685); read-out: 1,6-glucosidase, concentration resulting in half maximal activity (I.C.50); cited from earlier work.

Consider `OCCN1C[C@H](O)[C@@H](O)[C@H](O)[C@H]1CO` [miglitol], for which, in series [1], the “fasting plasma glucose after treatment (in words)” value was “not reduced”.
Turning to `OC[C@H]1NC[C@H](O)[C@@H](O)[C@@H]1O` [dNOJ, 1-deoxynojirimycin], in series [2] (50 μM), the “Glucose production without glucagon” value was determined as 92% and the “Glucose production with glucagon (0.5 nM)” value was 195%. The “inhibition of hepatocyte glucose production (in words)” value in series [2] is “insufficient to suppress hepatic glucose production”. The IC50 in series [3] amounted to 1.1 µM. The IC50 in series [4] is above 200 µM. Further, in series [5] (50 mg/kg i.v.), the Delta plasma glucose turned out to be 5.7 ± 1.2 mmol/L. The “reduction of blood glucose (in words)” value in series [5] is recorded as “unable to reduce blood glucose”.
Take `Cl.OC[C@H]1NC[C@@H](O)[C@@H]1O` [Compound 2, (2R,3R,4R)-3,4-Dihydroxy-2-(hydroxymethyl)pyrrolidine, hydrochloride]: in series [2] (1 μM), the “Glucose production without glucagon” value worked out at 19% and the “Glucose production with glucagon (0.5 nM)” value is listed as 41%. The “inhibition of hepatocyte glucose production (in words)” value in series [2] is “inhibit basal and glucagon stimulated hepatocyte glucose production”. Further, the IC50 in series [6] was 0.18 µM. In series [5] (8 mg/kg i.v.), this compound returned a Delta plasma glucose of 0.5 ± 0.6 mmol/L. Moreover, in series [5], the “reduction of blood glucose (in words)” value is “potent principle for reducing blood glucose”.
